Data from patent US20190231745A1, “INHIBITORS OF T CELL RECEPTOR AND USES THEREOF” (Consejo Superior De Investigaciones Cientificas, priority 2017, published 2019).
pIC50: −log10 of the molar value. Counter-ions that a name gives are not always drawn.

Tests used:
[1] = test system: B8R-reactive CD8 T cells in immunized mice; details: 10 or 40 mg/kg daily, 7 days
[2] = test system: purified human blood T cells stimulated with anti-CD3; assay: Microarray analysis of gene expression; type: cell-based; details: 1 nM, anti-CD3 4 hours, two donors
Protocol: RNA was extracted using the RNAeasy kit according to the manufacturer's instructions (QIAGEN 74134) and its integrity was assessed using an Agilent 2100 Bioanalyzer (Agilent). Labelling and hybridization were performed according to the protocols from Affymetrix. Briefly, 100 ng of total RNA were amplified and labelled using the WT Plus reagent kit (Affymetrix) and then hybridized to Human Gene 2.0 ST Array (Affymetrix). Washing and scanning were performed using the Affymetrix GeneChip System (GeneChip Hybridization Oven 645, GeneChip Fluidics Station 450 and GeneChip Scanner 7G).

[3] = test system: EAE in MOG-immunized mice; assay: EAE model, therapeutic treatment; type: in vivo, mouse; details: oral, therapeutic setting
ectromelia virus (ECTV) = details: mouse, in vivo
Sprague Dawley rats = assay: Toxicity after single oral dose, rats; type: in vivo
Excerpt: (§1) FIG. S7. Toxicity of AX-024 in mice and rats. (A) Effect of distinct single doses of AX024. HCl administered intraperitoneally on body weight gain of CD-1 mice over 14 days. The data represent the mean±s.e.m. (n=10 per group). (B) Effect of distinct single doses of AX024. HCl administered orally on body weight gain of Swiss albino mice over 14 days. The data represent the mean±s.e.m. (n=2 per group). (C) Effect of distinct single doses of AX-024. HCl administered per orally on body weight gain of Sprague Dawley rats over 14 days. The data represent the mean±s.e.m. (n=2 per group). (D) Summary of acute toxicological findings in different species and calculation of the human equivalent dose.

[4] = test system: Nck recruitment to the TCR; assay: Co-immunoprecipitation of endogenous Nck with the TCR; type: cell-based; details: human blood T cells stimulated with anti-CD3
Protocol: (§2) FIG. 2. Target specificity of AX-024. […] The experiment was repeated three times. […] RUs, response units.
For co-immunoprecipitation analysis of endogenous Nck, a total of […] enriched human blood T-cells were pre-incubated in serum-free RPMI medium with compound AX-024 before stimulation with soluble OKT3 (10 μg/ml) for 1 minute at 37° C. Cells were lysed as above, and immunoprecipitation was performed with OKT3 and protein A Sepharose beads. The resulting immunoprecipitated extracts were resolved in a 10% acrylamide SDS-PAGE gel for immunoblotting with a rabbit anti-Nck antibody and reprobed with anti-CD3ζ serum.

[5] = test system: human peripheral blood T cells stimulated with anti-CD3; assay: Human blood T cell proliferation induced by anti-CD3 (CFSE dilution); type: cell-based
[6] = target: CD3ε PRS peptide binding to immobilized SH3.1(Nck1) domain (Homo sapiens, UniProt P16333); assay: Surface plasmon resonance; details: SPR, maximum steady-state response units; read-out: IC50 for the inhibition of CD3ε peptide binding
Protocol: as §2
HBS-EP was used as the running buffer (10 mM HEPES [pH 7.4], 150 mM NaCl, 3 mM EDTA, 0.005% [v/v] Surfactant P20). Immobilization of the GST-Nck1(SH3.1) purified recombinant protein (final concentration 30 μg/ml) was performed by the amino coupling strategy using sodium acetate (10 mM) at pH 4.5 and 150 μL of a solution of EDC/NHS (v/v), with optimum immobilization achieved at approximately 5000 resonance units. For interaction experiments, increasing concentrations of the CD3ε peptide […] and AX-024 were used on the same chip. In all cases, the flow rate was […]. After each interaction, 2.5 M glycine (pH 2) was used to regenerate the surface, and the analyte response after regeneration was constant after repeated injections in all the experiments and within ±10% of the response following the first injection.

CD-1 mice = assay: Acute toxicity, single intraperitoneal injection; type: in vivo, mouse; details: single intraperitoneal injection 2.8, 14, 70, 350 mg/kg
Excerpt: as §1
Acute toxicity: Eight-week-old CD-1 mice were injected intraperitoneally with different amounts of the hydrochloride salt of AX-024 (AX-024.HCl) dissolved in 0.5 ml of saline. All animals were observed clinically for the appearance of macroscopically visible adverse reactions twice daily over 14 days, as well as immediately after AX-024 administration. A necropsy was carried out on each animal on day 14, and the abdominal, thoracic, and cranial cavities were examined in situ, together with their associated organs.

[7] = test system: murine naïve spleen B cells; assay: B cell proliferation (CellTrace Violet); type: cell-based, mouse
Protocol: as §2
Proliferation was calculated according to the total number of cell divisions (by Cell-Trace Violet dilution).

[8] = test system: intracellular F-actin in human blood T cells; assay: TCR-triggered actin polymerization (phalloidin staining); type: cell-based; details: T-cell, read-out: IC50 of inhibition of the anti-CD3 elicited increase of intracellular F-actin
Swiss albino mice = assay: Toxicity after single oral dose, mice; type: in vivo, mouse
Excerpt: as §1

[9] = test system: thymocytes of 4 week-old C57BL/6 mice; assay: Thymocyte differentiation in vivo; set-up: species or system mouse; details: administration for 10 days to 4-week-old mice
Protocol: FIG. S8. Effect of AX-024 on thymocyte differentiation. (A) Flow cytometry analysis of CD24 and TCR expression in thymocytes of 4 week-old C57BL/6 mice exposed to daily doses of oral AX-024 (10 mg/Kg and 40 mg/Kg) or to vehicle alone for 10 consecutive days. Both markers allowed the thymocytes to be divided into five subpopulations (a to e) that were reanalyzed according to CD4 and CD8 expression (right). The data below indicates the percentages of double negative (DN, CD4^− CD8^−), double positive (DP, CD4^+ CD8^+) and single positive (CDSP, CD4^+ CD8^−; CD8SP. CD4^− CD8^+) thymocytes within each a-to-e subpopulation. The data represent the mean±s.e.m. (n=6 mice per group). (B) Absolute cell number in the major thymic DN, DP, CD4SP, CD8SP subpopulations of mice analyzed in A. Numbers of pre- and post-beta selection (DN3 and DN4) and γδT cells are also indicated

## COc1ccc2c(c1)C(c1ccc(F)cc1)=C(CN1CCCC1)CO2 [AX-024.HCl]
[1]
  activation of CD8 T cell response to the viral epitope (IFN-γ production): Neither dose of the drug significantly inhibited

## COc1ccc2c(c1)C(c1ccc(F)cc1)=C(CN1CCCC1)CO2 [AX-024]
[2]
  number of genes transcriptionally downregulated: 1093 genes
[3]
  neurological score reached: 0
Ectromelia virus (ECTV)
  percentage of IFN-γ responding CD8 T cells upon ex vivo B8R stimulation: indistinguishable from that of the vehicle group
  survival of rechallenge with lethal dose 60 days later: resisted the lethal dose, regardless of their AX-024 treatment history
  survival rates, first challenge: did not influence survival rates
Sprague Dawley rats; doses as high 1600 mg/kg
  toxicity for rodents after single administration: not toxic
Sprague Dawley rats; rats, oral
  single oral doses without any adverse effects on body weight, organ size or lesions: ≤ 1600 mg/kg
[4]
  concentrations at which Nck recruitment to the TCR was inhibited (dose-dependent): ≥ 1 nM
[5]; T cell proliferation, anti-CD3
  concentration at which inhibitory effects were shown: ≤ 1 pM
[5]; more potent than AX-000
  potency relative to the AX-000 hit in inhibition of TCR-triggered T cell proliferation: > 10,000 fold
[6]
  pIC50: ~9.00
CD-1 mice; 14 days
  body weight gain: all mice gained weight at a similar rate
CD-1 mice; followed 14 days
  adverse reactions: no significant adverse reactions
[7]; LPS
  B cell proliferation induced by TLR4 agonist LPS: not inhibited
[7]; anti-CD40
  B cell proliferation induced by anti-CD40: not inhibited
[7]; anti-IgM stimulation, concentrations as high as 10 μM
  BCR-triggered B cell proliferation: not inhibited
[8]
  pIC50: 9.00
Swiss albino mice
  single oral doses without any adverse effects on body weight, organ size or lesions: ≤ 400 mg/kg
[9]
  thymocyte subset numbers: did not have a significant impact

## CCCCCCCCc1ccc(CCC(N)(CO)CO)cc1 [fingolimod, reference compound]
[3]
  neurological score reached: 0
